From patent US9814236B2, “Agricultural or horticultural chemical, method of controlling plant diseases, and product for controlling plant diseases” (Kureha Corporation, priority 2013, dated 2017)
Read-outs that look alike come from different tables or passages of the source.

Columns and labels:
Type in all cases: cell-based
[1] = test system: wheat leaf blight (Septoria tritici); test: In vitro antimicrobial activity test on PDA agar plates, 25° C., 14 days (Test Examples 4 to 7)
Protocol: (§1) Additionally, in the above formula, R represents a fungal expansion suppression rate (%), dc represents the diameter of a colony on an untreated plate, and dt represents the diameter of a colony on an chemical-treated plate.
(§2) Inhibition rate during mixed use (theoretical value)=α+((100−α)×β)/100, note that, in the formula above, α and β respectively represent the inhibition rates of the compounds during single use of the compounds.
Testing and determination were performed in the same manner as in Test Example 4 except for using the thiophanate-methyl in place of the boscalid.
Test and determination were performed in the same manner as in Test Example 4 except for using the chlorothalonil in place of the boscalid.

[2] = test system: gray mold disease (Botrytis cinerea); test: In vitro antimicrobial activity test on PDA agar plates, 20° C., two days (Test Examples 3, 8); conditions: Test Example 3
[3] = test system: wheat damping off (Gaeumannomyces graminis); test: In vitro antimicrobial activity test on PDA agar plates, 20° C., three days (Test Example 2)
Text: as §1, §2
In the present test example, the antimicrobial properties of a mixed formulation of compound (1) and bixafen on wheat damping off (Gaeumannomyces graminis) were tested.
Meanwhile, wheat damping off was punched out from the periphery of a colony of wheat damping off using a cork borer having a diameter of 4 mm, and inoculated onto the PDA agar plates in which the chemical(s) was(were) mixed.

[4] = test system: gray mold disease (Botrytis cinerea); test: In vitro antimicrobial activity test on PDA agar plates, 20° C., two days (Test Examples 3, 8); conditions: Test Example 8
Protocol: as §1, §2
Test and determination were performed in the same manner as in Test Example 3 except for using the penthiopyrad in place of the isopyrazam.

[5] = test system: wheat leaf blight (Septoria tritici); test: In vitro antimicrobial activity test on PDA agar plates, 20° C., three days (Test Example 1)
Protocol: In the present test example, the antimicrobial properties of a mixed formulation of compound (1) and bixafen on wheat leaf blight (Septoria tritici) were tested.
as §1, §2

`O=C(Nc1ccccc1-c1ccc(Cl)cc1)c1cccnc1Cl` [Boscalid, boscalid] showed an inhibition at 0.0393 ppm ([1]; Zymoseptoria tritici, 4TO7, Test Example 4, Boscalid 0.0393 ppm alone, read-out: Fungal growth inhibition rate (%) Measured value) of 0%, an inhibition at 0.1575 ppm ([1]; Zymoseptoria tritici, 4TO7, Test Example 4, Boscalid 0.1575 ppm alone, read-out: Fungal growth inhibition rate (%) Measured value) of 0% and an inhibition at 0.63 ppm ([1]; Zymoseptoria tritici, 4TO7, Test Example 4, Boscalid 0.63 ppm alone, read-out: Fungal growth inhibition rate (%) Measured value) of 31%. It also gave an inhibition at 2.5 ppm ([1]; Zymoseptoria tritici, 4TO7, Test Example 4, Boscalid 2.5 ppm alone, read-out: Fungal growth inhibition rate (%) Measured value) of 49% and an inhibition at 10 ppm ([1]; Zymoseptoria tritici, 4TO7, Test Example 4, Boscalid 10 ppm alone, read-out: Fungal growth inhibition rate (%) Measured value) of 100%.
For `COC(=O)C1(C)CCC(Cc2ccc(Cl)cc2)C1(O)Cn1cncn1` (stereo not drawn) [Compound (1), 3-(4-chlorobenzyl)-2-hydroxy-1-methyl-2-(1H-1,2,4-triazol-1-ylmethyl) cyclopentane carboxylic acid methyl], the “Fungal growth inhibition rate (%) Measured value” ([2]; Compound (1) 0.078 ppm alone) was 4%, the “Fungal growth inhibition rate (%) Measured value” ([3]; Compound (1) 0.005 ppm alone) was 0% and the “Fungal growth inhibition rate (%) Measured value” ([4]; Compound (1) 0.078 ppm alone) was 13%. The “Fungal growth inhibition rate (%) Measured value” ([1]; Test Example 4, Compound (1) 0.02 ppm alone) was 0%, the “Fungal growth inhibition rate (%) Measured value” ([1]; Test Example 5, Compound (1) 0.005 ppm alone) was 23% and the “Fungal growth inhibition rate (%) Measured value” ([1]; Test Example 6, Compound (1) 0.005 ppm alone) was 81%. For the same compound, the “Fungal growth inhibition rate (%) Measured value” ([1]; Test Example 7, Compound (1) 0.02 ppm alone) was 7% and the “Fungal growth inhibition rate (%) Measured value” ([5]; Compound (1) 0.005 ppm alone) was 0%.
For `Cn1cc(C(=O)Nc2ccc(F)cc2-c2ccc(Cl)c(Cl)c2)c(C(F)F)n1` [Bixafen, bixafen], the “Fungal growth inhibition rate (%) Measured value” ([3]; Bixafen 0.0393 ppm alone) was 0%, the “Fungal growth inhibition rate (%) Measured value” ([3]; Bixafen 0.1575 ppm alone) was 3% and the “Fungal growth inhibition rate (%) Measured value” ([3]; Bixafen 0.63 ppm alone) was 4%. The “Fungal growth inhibition rate (%) Measured value” ([3]; Bixafen 2.5 ppm alone) was 29%, the “Fungal growth inhibition rate (%) Measured value” ([5]; Bixafen 0.0393 ppm alone) was 0% and the “Fungal growth inhibition rate (%) Measured value” ([5]; Bixafen 0.1575 ppm alone) was 6%. For the same compound, the “Fungal growth inhibition rate (%) Measured value” ([5]; Bixafen 0.63 ppm alone) was 31% and the “Fungal growth inhibition rate (%) Measured value” ([5]; Bixafen 2.5 ppm alone) was 54%.
For `COC(=O)NC(=S)Nc1ccccc1NC(=S)NC(=O)OC` [Thiophanate-methyl, thiophanate-methyl], the inhibition at 0.01 ppm ([1]; Zymoseptoria tritici, 4TO7, Test Example 5, Thiophanate-methyl 0.010 ppm alone, read-out: Fungal growth inhibition rate (%) Measured value) was 0%, the inhibition at 0.039 ppm ([1]; Zymoseptoria tritici, 4TO7, Test Example 5, Thiophanate-methyl 0.039 ppm alone, read-out: Fungal growth inhibition rate (%) Measured value) was 0% and the inhibition at 0.156 ppm ([1]; Zymoseptoria tritici, 4TO7, Test Example 5, Thiophanate-methyl 0.156 ppm alone, read-out: Fungal growth inhibition rate (%) Measured value) was 0%. The inhibition at 0.625 ppm ([1]; Zymoseptoria tritici, 4TO7, Test Example 5, Thiophanate-methyl 0.625 ppm alone, read-out: Fungal growth inhibition rate (%) Measured value) was 76% and the inhibition at 2.5 ppm ([1]; Zymoseptoria tritici, 4TO7, Test Example 5, Thiophanate-methyl 2.5 ppm alone, read-out: Fungal growth inhibition rate (%) Measured value) was 100%.
For `CC(C)C1C2CCC1c1c(NC(=O)c3cn(C)nc3C(F)F)cccc12` (stereo not drawn) [Isopyrazam, isopyrazam], the “Fungal growth inhibition rate (%) Measured value” ([2]; Isopyrazam 0.0393 ppm alone) was 1%, the “Fungal growth inhibition rate (%) Measured value” ([2]; Isopyrazam 0.1575 ppm alone) was 9% and the “Fungal growth inhibition rate (%) Measured value” ([2]; Isopyrazam 0.63 ppm alone) was 23%. For the same compound, the “Fungal growth inhibition rate (%) Measured value” ([2]; Isopyrazam 2.5 ppm alone) was 35% and the “Fungal growth inhibition rate (%) Measured value” ([2]; Isopyrazam 10 ppm alone) was 69%.
With `Cn1cc(C(=O)Nc2ccccc2-c2cc(F)c(F)c(F)c2)c(C(F)F)n1` [Fluxapyroxad, fluxapyroxad] the “Fungal growth inhibition rate (%) Measured value” ([1]; Test Example 7, Fluxapyroxad 0.04 ppm alone) was 11%, the “Fungal growth inhibition rate (%) Measured value” ([1]; Test Example 7, Fluxapyroxad 0.16 ppm alone) was 34% and the “Fungal growth inhibition rate (%) Measured value” ([1]; Test Example 7, Fluxapyroxad 0.63 ppm alone) was 74%.
In the case of `CC(C)CC(C)c1sccc1NC(=O)c1cn(C)nc1C(F)(F)F` (stereo not drawn) [Penthiopyrad, penthiopyrad], the inhibition at 0.63 ppm ([4]; Botrytis cinerea, Penthiopyrad 0.63 ppm alone, read-out: Fungal growth inhibition rate (%) Measured value) is reported as 31%, the inhibition at 2.5 ppm ([4]; Botrytis cinerea, Penthiopyrad 2.50 ppm alone, read-out: Fungal growth inhibition rate (%) Measured value) is reported as 61% and the inhibition at 10 ppm ([4]; Botrytis cinerea, Penthiopyrad 10.00 ppm alone, read-out: Fungal growth inhibition rate (%) Measured value) is reported as 93%.
`N#Cc1c(Cl)c(Cl)c(Cl)c(C#N)c1Cl` [Chlorothalonil, chlorothalonil] was tested, and the inhibition at 0.01 ppm ([1]; Zymoseptoria tritici, 4TO7, Test Example 6, Chlorothalonil 0.010 ppm alone, read-out: Fungal growth inhibition rate (%) Measured value) was 0%, the inhibition at 0.039 ppm ([1]; Zymoseptoria tritici, 4TO7, Test Example 6, Chlorothalonil 0.039 ppm alone, read-out: Fungal growth inhibition rate (%) Measured value) was 0% and the inhibition at 0.156 ppm ([1]; Zymoseptoria tritici, 4TO7, Test Example 6, Chlorothalonil 0.156 ppm alone, read-out: Fungal growth inhibition rate (%) Measured value) was 0%. For the same compound, the inhibition at 0.625 ppm ([1]; Zymoseptoria tritici, 4TO7, Test Example 6, Chlorothalonil 0.625 ppm alone, read-out: Fungal growth inhibition rate (%) Measured value) was 3% and the inhibition at 2.5 ppm ([1]; Zymoseptoria tritici, 4TO7, Test Example 6, Chlorothalonil 2.5 ppm alone, read-out: Fungal growth inhibition rate (%) Measured value) was 30%.
